Each structure is given as a SMILES string.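 Dose response: 5 concentrations. Exposure: 48 h. Format: 96-well plates. Endpoint: linear interpolation; highest concentration if not reached. The concentration for 50% growth inhibition is given as GI50.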 Calls of active or inactive are those of the source. Cut-off read from the data, not from the text of the source: active = GI50 up to about 1.1 µM and inactive = higher.

Common to all, as to assay: NCI tumour cell line growth inhibition, 48 h
Test [1] deals with UACC-257.
Test [2] has as its system A549.
The subject of test [3] is M14.
For test [4], the system named is NCI-H460.
Test [5] relates to SK-MEL-2.
Test [6] deals with TK-10.
Test [7] concerns SF-268.
Test [8] deals with SK-OV-3.
Test [9] relates to RPMI-8226.
The subject of test [10] is SR.
The subject of test [11] is SK-MEL-5.
The test system of test [12] is COLO 205.
Test [13] has as its system MDA-MB-231.
Test [14] concerns MCF7.
For test [15], the system named is HCT-15.
For test [16], the system named is SN12C.
Test [17] has as its system OVCAR-4.
Test [18] has as its system HT-29.
For test [19], the system named is PC-3.
For test [20], the system named is T47D.

Consider `Cc1cc(=O)n2nc(CSc3nnc(S)s3)sc2n1`, for which the GI50 in test [1], in [2], in test [3], in test [4], in [5] and in test [6] was > 100 µM (inactive) each time. Further, the GI50 in [7], in [8], in [9], in test [10], in [11] and in [12] was > 100 µM (inactive) in each case. The GI50 in [13] is > 100 µM (inactive); in test [14], > 100 µM (inactive); in [15], over 100 µM; in test [16], > 100 µM (inactive); in test [17] it was > 100 µM (inactive); in test [18] it was > 100 µM (inactive). The GI50 in test [19] and in test [20] was > 100 µM (inactive) throughout.

Regarding `Nc1ccc(S(=O)(=O)NCc2nccs2)cc1`, the GI50 was 17.7 µM (inactive) in [1]; 27.9 µM (inactive) in [2]; 18.2 µM (inactive) in test [3]; 26.5 µM (inactive) in test [4]; 20 µM (inactive) in test [5]; 22.2 µM (inactive) in [6]. Also, the GI50 in test [7] is 18.6 µM (inactive); in test [8], 32.3 µM (inactive); in test [9], 25.8 µM (inactive); in test [10], 31 µM (inactive); in test [11], 15.8 µM (inactive); in [12], 18.4 µM (inactive). Also, the GI50 in test [13] was 24.9 µM (inactive); in [14], 23.4 µM (inactive); in test [15], 26.7 µM; in test [16], 19.2 µM (inactive); in test [17], 29.3 µM (inactive); in test [18] it was 16.7 µM (inactive). Besides, the GI50 in test [19] is 30.1 µM (inactive); in [20], 24.1 µM (inactive).

Take `C[N+](C)(C)CC1Cc2ccccc2C1=O` (stereo not given): the GI50 in test [1] was > 10 µM (inactive); in test [2], > 10 µM (inactive); in [3] it was 2.75 µM (inactive); in test [4] it was > 10 µM (inactive); in test [5] it was > 9.14 µM (inactive); in test [6], > 8.36 µM (inactive). For the same compound, the GI50 in test [7] was > 10 µM (inactive); in [8] it was > 10 µM (inactive); in test [9], 1.48 µM (inactive); in test [10] it was 1.22 µM (inactive); in [11], > 10 µM (inactive); in test [12], 2.93 µM (inactive). In addition, the GI50 was > 10 µM (inactive) in test [13]; 2.07 µM (inactive) in [14]; 4.53 µM in test [15]; > 7.45 µM (inactive) in test [16]; 2.72 µM (inactive) in [17]; 6.38 µM (inactive) in test [18]. Moreover, the GI50 is > 10 µM (inactive) in [19] and 2.51 µM (inactive) in [20].

Turning to `CN(/N=C/c1ccc(Cl)c(Cl)c1)C1=NCCCCN1`, the GI50 is 22.6 µM (inactive) in test [1]; 62.4 µM (inactive) in test [2]; 15.4 µM (inactive) in test [3]; 42.5 µM (inactive) in test [4]; 20.1 µM (inactive) in test [5]; 69.8 µM (inactive) in [6]. In addition, the GI50 is 51.2 µM (inactive) in test [7]; 53.3 µM (inactive) in test [8]; 27.9 µM (inactive) in [9]; 41.3 µM (inactive) in test [10]; 14.6 µM (inactive) in test [11]; 16.7 µM (inactive) in [12]. Moreover, the GI50 in test [13] was 32 µM (inactive); in test [14], 19.8 µM (inactive); in test [15], 26.2 µM; in [16] it was 42 µM (inactive); in test [17] it was 44.1 µM (inactive); in test [18] it was 29.2 µM (inactive). Further, the GI50 in test [19] was 25.3 µM (inactive); in test [20], 16.6 µM (inactive).

As for `CC(C)(C)N1CC1CNC(=O)C(=O)NCC1CN1C(C)(C)C` (stereo not given), the GI50 in test [1] was 5.05 µM (inactive); in [2], 3.93 µM (inactive); in test [3], 3.61 µM (inactive); in test [4], 1.53 µM (inactive); in test [5] it was 5.33 µM (inactive); in test [6] it was 51.1 µM (inactive). In addition, the GI50 in test [7] is 3.03 µM (inactive); in test [8] it was 3.69 µM (inactive); in test [9], 5.86 µM (inactive); in [10] it was 0.601 µM (active); in [11] it was 16.7 µM (inactive); in [12], 3.79 µM (inactive). Further, the GI50 in [13] was 63.4 µM (inactive); in [14], 9.31 µM (inactive); in test [15], 3.74 µM; in test [16], 2.33 µM (inactive); in [17], 28.5 µM (inactive); in test [18], 2.45 µM (inactive). In addition, the GI50 in [19] is 14.9 µM (inactive); in test [20], 22.2 µM (inactive).

`OCCNC1c2cc(Cl)ccc2-c2c(Cl)cc(Cl)cc21` (stereo not given): the GI50 in test [1] was 31.3 µM (inactive); in test [2], 30 µM (inactive); in test [3] it was 38.1 µM (inactive); in [4], 21.7 µM (inactive); in [5], 15.2 µM (inactive); in [6], 39.7 µM (inactive). Also, the GI50 in test [7] is 38.5 µM (inactive); in [8], 42 µM (inactive); in [9], 33.1 µM (inactive); in test [10], 20.5 µM (inactive); in test [11] it was > 100 µM (inactive); in test [12], 54.8 µM (inactive). For the same compound, the GI50 in test [13] is 22 µM (inactive); in test [14] it was 17.2 µM (inactive); in test [15], 33.7 µM; in [16], 25.5 µM (inactive); in test [17], 32.1 µM (inactive); in test [18], 31.5 µM (inactive). Also, the GI50 in test [19] was 23.3 µM (inactive); in test [20] it was 36.1 µM (inactive).

With `CCOC(=O)C(=O)C(=O)NN(C)C1=NCCN1`, the GI50 in [1], in test [2], in [3], in [4], in test [5] and in test [6] was > 100 µM (inactive) in each case. Also, the GI50 in test [7], in test [8], in test [9], in test [10], in test [11] and in test [12] was > 100 µM (inactive) in each case. In addition, the GI50 was > 100 µM (inactive) in test [13]; > 100 µM (inactive) in [14]; over 100 µM in test [15]; > 100 µM (inactive) in [16]; > 100 µM (inactive) in test [17]; > 100 µM (inactive) in [18]. Moreover, the GI50 in test [19] and in test [20] was > 100 µM (inactive) throughout.

Consider `CSc1ccc(/C=C/C(=O)c2nc3ccccc3[nH]2)cc1`, for which the GI50 in test [1] was 20.6 µM (inactive); in test [2], 18.2 µM (inactive); in test [3] it was 15.9 µM (inactive); in test [4] it was 18.4 µM (inactive); in test [5], 18.1 µM (inactive); in test [6], 3.58 µM (inactive). Moreover, the GI50 in test [7] is 26.9 µM (inactive); in test [8], 27.5 µM (inactive); in test [9] it was 3.02 µM (inactive); in test [10], 2.35 µM (inactive); in test [11], 21.2 µM (inactive); in test [12], 18.1 µM (inactive). Besides, the GI50 was 10 µM (inactive) in test [13]; 2.64 µM (inactive) in test [14]; 11.8 µM in [15]; 29.2 µM (inactive) in [16]; 14.1 µM (inactive) in test [17]; 15.7 µM (inactive) in test [18]. Further, the figures for the GI50 in [19] and in [20] were 12.3 µM (inactive) and 3.95 µM (inactive), respectively.

With `Clc1ccc(/C=C/c2nc3ccccc3s2)cc1Cl`, the GI50 in [1] is > 100 µM (inactive); in test [2], 57.8 µM (inactive); in test [3], 36.5 µM (inactive); in [4], 53.5 µM (inactive); in [5] it was > 10 µM (inactive); in test [6] it was 34.4 µM (inactive). Also, the GI50 is 42.8 µM (inactive) in test [7]; 50.1 µM (inactive) in test [8]; 41.7 µM (inactive) in test [9]; > 100 µM (inactive) in [10]; 27.2 µM (inactive) in test [11]; 54.1 µM (inactive) in test [12]. For the same compound, the GI50 was 16.2 µM (inactive) in test [13]; 15.1 µM (inactive) in test [14]; over 100 µM in [15]; > 100 µM (inactive) in [16]; 15.6 µM (inactive) in test [17]; > 100 µM (inactive) in test [18]. The results for the GI50 in test [19] and in test [20] were 1.69 µM (inactive) and 1.66 µM (inactive), respectively.

Turning to `Cc1cc(O)c2cc3c(O)c(O)ccc3cc2c1`, the GI50 in test [1] is 3.2 µM (inactive); in test [2] it was 1.14 µM (inactive); in test [3], 2.86 µM (inactive); in test [4] it was 0.524 µM (active); in [5] it was 0.895 µM (active); in test [6] it was 3.78 µM (inactive). The GI50 in [7] was 1.07 µM (active); in test [8], 0.774 µM (active); in test [9], 0.326 µM (active); in test [10] it was 0.618 µM (active); in [11] it was 0.243 µM (active); in [12], 0.351 µM (active). For the same compound, the GI50 in test [13] is 1.25 µM (inactive); in test [14], 2.27 µM (inactive); in test [15], 1.2 µM; in test [16], 2.46 µM (inactive); in test [17], 0.536 µM (active); in [18], 2.54 µM (inactive). Moreover, the GI50 in [19] is 0.302 µM (active); in test [20], 1.75 µM (inactive).

The values are drawn from ChEMBL document CHEMBL1201862, “PubChem BioAssay data set” (2004).
